Reference: patent EP1067939B1, “USE OF STEROIDAL ALKALOID DERIVATIVES AS INHIBITORS OF HEDGEHOG PROTEIN SIGNALING PATHWAYS” (The Johns Hopkins University, priority 1998, dated 1999)
Values joined by “and” are separate entries in the source; they are usually repeats but may differ in a detail not shown here. Equal values may be shown once. Read-outs that look alike come from different tables or passages of the source.

Columns and labels:
[1] = test system: primary human lymphoblasts; experiment: Cholesterol Biosynthesis Assay (sterol profiles of cultured cells); type: cell-based; conditions: for Percent Sterols: Cholesterol / Percent Sterols: c. Cholesta-7,24-dien-3ß-ol / Percent Sterols: e. Cholesta-8(14)-en-3ß-ol / Percent Sterols: f. 7 Dehydrocholesterol / Percent Sterols: h. C27 Sterol 1 (mw 384) / Percent Sterols: j. C27 Oxysterol 1 (mw 400) / Percent Sterols: k. C27 Oxysterol 2 (mw 400) / Total Sterols (µg/mg protein) / Percent Sterols: i. C27 Sterol 2 (mw 382) / Percent Sterols: 2. C28 Sterols / Percent Sterols: 3. C29 Sterols / Percent Sterols: d. Zymosterol: five days
[2] = target: T1, Shh (Mus musculus, UniProt Q62226); experiment: Shh autoprocessing in stably transfected HK293 cells (immunoblot); type: cell-based
T1 construct: expressed in transfected cells; host or cells: HK293 cells, Ecdysone-Inducible Mammalian Expression System (Invitrogen)
Source text: To examine potential effects of these compounds on Shh processing we utilized HK293 cells cultured in lipid-depleted serum and carrying a stable integrated construct for expression of Shh under ecdysone-inducible control (47). Shh protein expression in these cells can be induced by addition of muristerone A, an ecdysone analog.
• 1. M. Hammerschmidt, A. Brook, A. P. McMahon, Trends Genet, 13, 14-21 (1997). • 2. C. Chiang, et al., Nature, 383,407-413 (1996). • 3. Y. Tanabe, T. M. Jessell, Science 274, 1115-1123 (1996). • 4. T. P. Yamaguchi, Curr. Opin. Genet. Dev. 7, 513-518 (1997). • 5. N. Shubin, C. Tabin, S. Carroll, Nature 388, 639-648 (1997). • 6. A. E. Oro, et al., Science 276, 817-821 (1997). • 7. M. M. Cohen, K. K. Sulik, J. Craniofac. Genet. Deve. Biol. 12, 196-244 (1992). • 8. E. Belloni, et al., Nature Genet. 14, 353-356 (1996). • 9. E. Roessler, et al., Nature Genet. 14, 357-360 (1996). • 10. J. A. Porter, et al., Nature 374, 363-366 (1995). • 11. J. A. Porter, K. E. Young, P. A. Beacy, Science 274, 255-259 (1996b). • 12. J. J. Lee, et al., Science 266, 1528-1537 (1994). • 13. J. A. Porter, et al., Cell 86, 21-34 (1996a). • 14. C. Roux, Arch. Franc. Pediatr. 21, 451-464 (1964). • 15. C. Roux, C. R. Soc. Biol. 160, 1353-1357 (1966). • 16. D. B. Dehart, L. Lanoue, G. S. Tinit, K. K. Sulik, Am J. Med. Genet. 68, 328-337 (1997). • 17. M. Kraml, J. F. Bagli, D. Dvornik, Biochem. and Biophysical Res. Com. 15, 455-457 (1964). • 18. J. Avigan, D. Steinberg, H. E. Vroman, M. J. Thompson, E. Mosettig, J. Biol. Chem 235, 3123-3126 (1960). • 19. R. B. Clayton, A. N. Nelson, I. D. Frantz Jr., J. Lipid Res. 4, 166-178 (1963). • 20. J. Aufenanger, J. Pill, K. Stegmeier, F. H. Schmidt, Horm. Metabol. Res. 17, 612-613 (1986). • 21. […] G. Popjak, A. Meenean, E. J. Parish, W. D. Nes, J. Biol. Chem 264,6230-6238 (1989). • 23. H. Yoshikawa, Brain Deve. 13, 115-120 (1991). • 24. R. I. Kelley, et al., Am. J. Of Med. Gen. 66, 478-484 (1996). • 25. G. S. Tint, et al., New England Journal of Medicine 330, 107-113 (1994). • 26. T.E. Willnow, et al., Proc. Natl. Acad. Sci USA 93, 8460-8464 (1996). • 27. S. Stefansson, D. A. Chappell, K. M. Argraves, D. K. Strickland, W. S. Argraves, J. Biol. Chem. 270, 19417-19421 (1995). • 28. W. Binns, L. F. James, J. L. Shupe, G. Everett, Am. J. Vet. Res. 24, 1164-1174 (1963). • 29. R. F. Keeler, W. Binns, Teratology 1, 5-10 (1968). • 30. P. A. Beachy, et al., CSH Symp. Quant. Biol. 62, in press (1997). • 31. E. D. Carstea, et al., Science 277, 228-231 (1997). • 32. S. K. Loftus, et al., Science 277, 232-235 […]. • 33. L. V. Goodrich, L. Milenkovic, K. M. Higgins, M. P. Scott, Science 277, 1109-1113 (1997). • 34. H. Kumagai, K. T. Chun, R. D. Simoni, J. Biol. Chem. 270, 19107-19113 (1995). • 35. G. Gil, J. R. Faust, D. J. Chin, J. L. Goldstien, M. S. Brown, Cell 41, 249-258 (1985). • 36. X. Hua, A. Nohturfft, J. L. Goldstein, M. S. Brown, Cell 87, 415-426 (1996). • 37. M. S. Brown, J. L. Goldstein, Cell 89, 331-340 (1997). • 38. M. M. Bryden, C. Perry, R. F. Keeler, Teratology 8, 18-28 (1973). • 39. M. L. Omnell, F. R. P. Sim, R. F. Keeler, L. C. Harne, K. W. Brown, Teratology 42, 105-119 (1990). • 40. Fertile chick eggs (white leghorn) were placed in a humidified incubator at 37.5° C in a rotating tray for 14 hours. […] The window was taped and the eggs incubated for an additional 4 days. The embryos were dissected in phosphate buffered saline (PBS, pH 7.2).

[3] = test system: BMP7; experiment: Neural plate explant response to BMP7 (migratory HNK-1 positive cells); type: cell-based, chick; conditions: 100 ng/ml BMP7, ventral neural plate explants

T1 sequence (Q62226 25-437): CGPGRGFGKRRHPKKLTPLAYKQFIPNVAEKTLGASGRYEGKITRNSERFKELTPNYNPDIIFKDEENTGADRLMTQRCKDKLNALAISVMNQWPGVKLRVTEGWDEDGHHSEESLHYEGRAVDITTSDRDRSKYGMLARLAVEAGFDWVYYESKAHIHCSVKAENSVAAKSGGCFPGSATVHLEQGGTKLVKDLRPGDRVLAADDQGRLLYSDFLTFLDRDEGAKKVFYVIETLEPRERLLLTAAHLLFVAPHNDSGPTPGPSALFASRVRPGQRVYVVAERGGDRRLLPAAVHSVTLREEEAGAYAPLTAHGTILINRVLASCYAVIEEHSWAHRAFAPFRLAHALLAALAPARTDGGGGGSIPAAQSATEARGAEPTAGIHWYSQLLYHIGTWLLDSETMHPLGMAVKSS

Row | Compound | Percent Sterols: b. 7 Dehydrodesmosterol [1] | Percent Sterols: Cholesterol ([1]; 1.25 µM) [%] | Percent Sterols: c. Cholesta-7,24-dien-3ß-ol ([1]; 1.25 µM) [%] | Percent Sterols: e. Cholesta-8(14)-en-3ß-ol ([1]; 1.25 µM) [%] | Percent Sterols: f. 7 Dehydrocholesterol ([1]; 1.25 µM) [%] | Total Sterols (µg/mg protein) ([1]; 1.25 µM) | Percent Sterols: Cholesterol ([1]; 2.5 µM) [%] | Percent Sterols: c. Cholesta-7,24-dien-3ß-ol ([1]; 2.5 µM) [%] | Percent Sterols: e. Cholesta-8(14)-en-3ß-ol ([1]; 2.5 µM) [%] | Percent Sterols: f. 7 Dehydrocholesterol ([1]; 2.5 µM) [%] | Total Sterols (µg/mg protein) ([1]; 2.5 µM) | Percent Sterols: 2. C28 Sterols ([1]; 5.0 µM) [%] | Percent Sterols: 3. C29 Sterols ([1]; 5.0 µM) [%] | Percent Sterols: Cholesterol ([1]; 5.0 µM) [%] | Percent Sterols: c. Cholesta-7,24-dien-3ß-ol ([1]; 5.0 µM) [%] | Percent Sterols: e. Cholesta-8(14)-en-3ß-ol ([1]; 5.0 µM) [%] | Percent Sterols: f. 7 Dehydrocholesterol ([1]; 5.0 µM) [%] | Total Sterols (µg/mg protein) ([1]; 5.0 µM) | other results
1 | C[C@H]1CC[C@]2(NC1)O[C@H]1C[C@H]3[C@@H]4CC[C@H]5C[C@@H](O)CC[C@]5(C)[C@H]4CC[C@]3(C)[C@H]1[C@@H]2C [Tomatidine, tomatidine] | 0.8% and 0.5% | 54 | 0.9 | 6.7 | 19 | 7.8 | 42 | 0.9 | 8.9 | 14 | 7.8 | 1.6 | 3.1 | 32 | 0.7 | 8.7 | 9.8 | 5.6 | Percent Sterols: g. Lathosterol [1]: 4.9% and 4.7% and 3.6%; Percent Sterols: h. C27 Sterol 1 (mw 384) ([1]; 1.25 µM): 7.0%; Percent Sterols: j. C27 Oxysterol 1 (mw 400) ([1]; 1.25 µM): 1.0%; Percent Sterols: k. C27 Oxysterol 2 (mw 400) ([1]; 1.25 µM): 2.0%; Percent Sterols: h. C27 Sterol 1 (mw 384) ([1]; 2.5 µM): 13%; Percent Sterols: i. C27 Sterol 2 (mw 382) ([1]; 2.5 µM): 4.1%; Percent Sterols: j. C27 Oxysterol 1 (mw 400) ([1]; 2.5 µM): 2.4%; Percent Sterols: k. C27 Oxysterol 2 (mw 400) ([1]; 2.5 µM): 5.0%; Percent Sterols: h. C27 Sterol 1 (mw 384) ([1]; 5.0 µM): 20%; Percent Sterols: i. C27 Sterol 2 (mw 382) ([1]; 5.0 µM): 4.7%; Percent Sterols: j. C27 Oxysterol 1 (mw 400) ([1]; 5.0 µM): 4.5%; Percent Sterols: k. C27 Oxysterol 2 (mw 400) ([1]; 5.0 µM): 11%; Shh-Np production and accumulation of unprocessed precursor ([2]; added during the 24-hour induction period, doses up to 5-fold higher than those required to completely inhibit Shh signaling): did not diminish Shh-Np production nor induce accumulation of unprocessed precursor; slower migrating Shh species, signal sequence cleavage ([2]; species ∼ 1.9 kD larger, lanes 10, 11): minor inhibition of signal sequence cleavage; Induction of migratory HNK-1 positive cells by BMP7 ([3]; 50 µM): not inhibited
2 | CC1=C2C[C@H]3[C@@H](CC=C4C[C@@H](O)CC[C@@]43C)[C@@H]2CC[C@]12O[C@@H]1C[C@H](C)CN[C@H]1[C@H]2C [Cyclopamine, cyclopamine] | 0.8% | 87 | 0.6 | 0.9 | 2.4 | 8.4 | 76 | 0.9 | 2.5 | 4.2 | 8.5 | 1.8 | 3.1 | 68 | 1.6 | 2.7 | 6.3 | 8.3 | Percent Sterols: 2. C28 Sterols ([1]; 1.25 µM): 1.2%; Percent Sterols: 3. C29 Sterols ([1]; 1.25 µM): 0.7%; Percent Sterols: d. Zymosterol ([1]; 1.25 µM): 2.3%; Percent Sterols: 2. C28 Sterols ([1]; 2.5 µM): 1.3%; Percent Sterols: 3. C29 Sterols ([1]; 2.5 µM): 1.2%; Percent Sterols: d. Zymosterol ([1]; 2.5 µM): 4.5%; Percent Sterols: d. Zymosterol ([1]; 5.0 µM): 4.7%; Shh-Np production and accumulation of unprocessed precursor [2]: did not diminish Shh-Np production nor induce accumulation of unprocessed precursor; Induction of migratory HNK-1 positive cells by BMP7 ([3]; 10 µM): not inhibited
